# Assay results reported in US12428377B2, “Sodium-hydrogen exchanger 3 inhibitor compounds” (Eli Lilly and Company, priority 2019, dated 2025).
# Experiments:
# [1] = target: T1, human NHE3 (Homo sapiens, UniProt P48764); experiment: In vitro NHE3 inhibition activity (intracellular pH recovery, BCECF-AM, NHD C8 cells overexpressing human NHE3); assay type: cell-based; settings: geometric mean of individual IC50
# T1 construct: myc; expressed in transfected cells
# T1 sequence (P48764 26-834): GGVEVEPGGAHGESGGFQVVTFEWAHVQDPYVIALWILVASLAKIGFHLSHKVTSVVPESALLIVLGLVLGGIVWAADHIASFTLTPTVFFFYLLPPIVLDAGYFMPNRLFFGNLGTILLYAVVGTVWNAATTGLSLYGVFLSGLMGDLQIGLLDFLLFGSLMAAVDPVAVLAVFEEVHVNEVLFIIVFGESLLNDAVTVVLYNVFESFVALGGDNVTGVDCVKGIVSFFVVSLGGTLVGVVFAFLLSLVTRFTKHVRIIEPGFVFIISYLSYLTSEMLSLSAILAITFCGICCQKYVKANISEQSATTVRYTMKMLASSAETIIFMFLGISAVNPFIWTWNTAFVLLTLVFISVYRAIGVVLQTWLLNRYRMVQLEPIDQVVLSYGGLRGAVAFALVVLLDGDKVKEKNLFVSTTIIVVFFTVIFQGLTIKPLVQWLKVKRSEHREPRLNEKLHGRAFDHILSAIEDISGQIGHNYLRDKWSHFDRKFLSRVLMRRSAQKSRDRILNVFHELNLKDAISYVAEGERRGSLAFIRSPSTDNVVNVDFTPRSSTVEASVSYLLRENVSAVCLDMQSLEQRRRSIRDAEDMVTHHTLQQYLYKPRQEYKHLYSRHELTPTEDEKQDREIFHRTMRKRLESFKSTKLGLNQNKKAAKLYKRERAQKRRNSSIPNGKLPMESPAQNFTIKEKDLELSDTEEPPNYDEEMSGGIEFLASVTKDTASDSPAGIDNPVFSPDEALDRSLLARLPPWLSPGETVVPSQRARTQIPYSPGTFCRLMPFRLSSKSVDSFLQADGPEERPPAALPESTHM
# Text: In Vitro NHE3 Inhibition Activity
# To create an NHE3 assay, cells selectively expressing NHE3 are generated by overexpressing human NHE3 in an endogenously NHE-deficient cell line. The NHE-deficient cell line is created by chemical-induced mutagenesis. After the mutagenesis, NHE-deficient cells are selected by subjecting lithium (Li) loaded cells to an acidic extracellular environment. Under these conditions, NHE exchanges intracellular Li^+ for extracellular protons, thus only NHE-deficient cells can avoid a toxic intracellular acidosis and survive.
# An NHE-deficient cell line, NHD C8, is generated by mutagenesis and selection from the cell line Dede (ATCC® CCL-39™). The mutagenesis is induced by treating Dede CCL-39 cells with EMS (Sigma-Aldrich) in growth media at a final concentration of 500 μg/ml for 20 h. […]
# To measure NHE activity, the intracellular pH of the cells is reduced by addition of NH4Cl. The sodium-dependent intracellular pH change is then measured by the intracellular pH-sensitive fluorescein dye, BCECF-AM (Molecular Probes-ThermoFisher Scientific). […] The plate is immediately read for fluorescent intensity at an excitation wavelength of 505 nm and emission wavelength of 550 nm. […]
# [2] = tested on: Male Sprague-Dawley rats; experiment: Effect of Example 1 on sodium absorption (urinary sodium excretion after oral NaCl bolus); assay type: in vivo, rat; settings: 2 h urine; for Urinary Sodium to Creatinine Ratio: mean ± SEM
# Description: Effect of Example 1 on Sodium Absorption
# Urinary sodium excretion following an oral bolus dose of sodium chloride is an indirect measure of sodium absorption in the intestine.
# Male Sprague-Dawley with body weights ranging from 200 to 250 g are randomized into groups based on equal mean body weights. Henceforth the following formulation is referred to as “1% HEC”: 1% hydroxyethyl cellulose (HEC) and 0.25% Tween® 80 with antifoam vehicle in water. Example 1 at 0.1 mg/mL (final dose 1 mg/kg dosed in 10 mL/kg volume) is formulated with 1% HEC in a glass vial containing a pre-weighed amount of compound, and then probe sonicating until it appears as a uniform suspension. […] The subsequent dosing solutions of Example 1 are prepared by serial dilutions with 1% HEC. NaCl at 10 mg/ml (final dose 200 mg/kg dosed in 20 ml/kg volume) is formulated by adding sterile water.
# On the day before the study, the animals are placed into clean cages without food but with access to water for an overnight fast. On the day of the study, rats are orally dosed with vehicle or varying doses of Example 1. 30 min later, animals are dosed with NaCl, then immediately transferred to metabolic cages. Urine samples are collected for 2 h. Net urine volume is recorded. Urinary sodium, and creatinine are assessed using a clinical biochemistry analyzer.
# Values expressed as the ratio of urinary sodium to creatinine (mM/mM) are calculated and presented as mean±SEM. The curves are fitted with 4-parameter logistic curve fitting tool GraphPad Prism 6 to calculate the ED50. For the purpose of curve fitting, the dose of Example 1 is artificially set to 0.001 mg/kg in the software for the vehicle-alone group.
smiles,measurement,setting,value
"CN1Cc2c(Cl)cc(Cl)cc2[C@H](c2cccc(S(=O)(=O)NCCOCCOCCN/C(=N\C#N)NCCCCN/C(=N/C#N)NCCOCCOCCNS(=O)(=O)c3cccc([C@@H]4CN(C)Cc5c(Cl)cc(Cl)cc54)c3)c2)C1 [Example 1, 2-Cyano-1-[4-[[N′-cyano-N-[2-[2-[2-[[3-[(4S)-6,8-dichloro-2-methyl-3,4-dihydro-1H-isoquinolin-4-yl]phenyl]sulfonylamino]ethoxy]ethoxy]ethyl]carbamimidoyl]amino]butyl]-3-[2-[2-[2-[[3-[(4S)-6,8-dichloro-2-methyl-3,4-dihydro-1H-isoquinolin-4-yl]phenyl]sulfonylamino]ethoxy]ethoxy]ethyl]guanidine]",IC50,[1],37.9 nM
same,ED50,"[2]; Rattus norvegicus, oral, NaCl bolus 200 mg/kg",0.058 mg/kg
same,Urinary Sodium to Creatinine Ratio,[2]; oral 0.03 mg/kg,1.19 ± 0.19 mM/mM
same,Urinary Sodium to Creatinine Ratio,[2]; oral 0.1 mg/kg,0.80 ± 0.23 mM/mM
same,Urinary Sodium to Creatinine Ratio,[2]; oral 0.3 mg/kg,0.37 ± 0.06 mM/mM
same,Urinary Sodium to Creatinine Ratio,[2]; oral 1.0 mg/kg,0.63 ± 0.23 mM/mM
